Key:
Type in all cases: cell-based
[1] = system: AR / CBP ternary complex; assay: Ternary complex formation assay (sandwich ELISA, AR capture / CBP detection) in VCaP cell lysates; conditions: 1.5 hours treatment, sandwich ELISA (AR capture, CBP or p300 detection)
Summary of the method: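 VCaP cells (50K/well, 5% charcoal-stripped FBS, ≥3 days) treated with bifunctional compound for 1.5 h, then lysed 30 min at 4 °C. AR captured on anti-AR (AR 441) plates; bound CBP or p300 detected by rabbit mAb plus HRP secondary. QuantaRed chemifluorescence read at ex 570/em 585, immediately and at 5 and 15 min.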

[2] = system: VCaP cells; assay: VCaP growth inhibition assay; conditions: 30 pM R1881, 9 days, CTG
Summary of the method: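 VCaP cells in phenol red-free DMEM/5% CSS, pre-incubated 72 h, then stimulated with R1881 (final 30 pM) and treated with 1:5 serial dilutions (final 100 nM to 10 fM) for 9 days at 37 °C. Viability by CellTiter-Glo luminescence; IC50 from 4-parameter logistic fit of RLU vs concentration.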

[3] = system: HEK-293 cells; assay: HEK-293 growth inhibition assay; conditions: 3 days, CTG
Method: Cluster plates are returned to the incubator (37*C/5% CO2) for 24 hours prior to treatment. […] Cluster plates are returned to the incubator for 3 days.
After the 3-day treatment period, 100 uL media was removed from each well by aspiration and 100 uL room temperature CTG reagent (Promega Cat #G7573) is added back to each well. The cluster plates are placed on a shaker and incubated at room temperature for 20 minutes. Following this shaking/incubation, cluster plates are read on a luminometer (BMG ClarioStar). IC50 values are obtained by graphing the RLU data vs. compound concentration with nonlinear regression 4-parameter logistic curves (GraphPad Prism).

EC50 [1]	IC50 [2]	Compound	IC50 [3]
> 100 nM	> 100 nM	C[C@@H]1CC(=O)Nc2cccc(-c3ccc4c(c3)c(C3CC3)nn4CCCN3CCN(c4ncc(C(=O)NC5C(C)(C)C(Oc6ccc(C#N)c(Cl)c6)C5(C)C)cn4)CC3)c2N1 (stereo partly drawn) [Compound 59, N-[3-(3-chloro-4-cyano-phenoxy)-2,2,4,4-tetramethyl-cyclobutyl]-2-[4-[3-[3-cyclopropyl-5-[(4R)-4-methyl-2-oxo-1,3,4,5-tetrahydro-1,5-benzodiazepin-6-yl]indazol-1-yl]propyl]piperazin-1-yl]pyrimidine-5-carboxamide]	> 10000 nM
< 1 nM	0.1 to 1 nM	CC(=O)N1CCc2c(c(N3CCCc4cc(-c5cnn(C)c5)c(C(F)F)cc43)nn2C2CCN(C(=O)COC3CCN(c4ncc(C(=O)NC5C(C)(C)C(Oc6ccc(C#N)c(Cl)c6)C5(C)C)cn4)CC3)CC2)C1 (centres unmarked) [Compound 69, 2-[4-[2-[4-[5-acetyl-3-[7-(difluoromethyl)-6-(1-methylpyrazol-4-yl)-3,4-dihydro-2H-quinolin-1-yl]-6,7-dihydro-4H-pyrazolo[4,3-c]pyridin-1-yl]-1-piperidyl]-2-oxo-ethoxy]-1-piperidyl]-N-[3-(3-chloro-4-cyano-phenoxy)-2,2,4,4-tetramethyl-cyclobutyl]pyrimidine-5-carboxamide]	> 10000 nM
< 1 nM	0.1 to 1 nM	CC(=O)N1CCc2c(c(Nc3ccc(-c4cnn(C)c4)cc3F)nn2C2CCN(C(=O)CN3CCN(c4ncc(C(=O)NC5C(C)(C)C(Oc6ccc(C#N)c(Cl)c6)C5(C)C)cn4)CC3)CC2)C1 (centres unmarked) [Compound 66, 2-[4-[2-[4-[5-acetyl-3-[2-fluoro-4-(1-methylpyrazol-4-yl)anilino]-6,7-dihydro-4H-pyrazolo[4,3-c]pyridin-1-yl]-1-piperidyl]-2-oxo-ethyl]piperazin-1-yl]-N-[3-(3-chloro-4-cyano-phenoxy)-2,2,4,4-tetramethyl-cyclobutyl]pyrimidine-5-carboxamide]	> 10000 nM
> 100 nM	> 100 nM	CNC(=O)N1CCc2c(c(N3CCCc4cc(-c5cnn(C)c5)c(C(F)F)cc43)nn2C2CCN(Cc3ncc(C(=O)NC4C(C)(C)C(Oc5ccc(C#N)c(Cl)c5)C4(C)C)cn3)CC2)C1 (centres unmarked) [Compound 91, 1-[1-[[5-[[3-(3-chloro-4-cyano-phenoxy)-2,2,4,4-tetramethyl-cyclobutyl]carbamoyl]pyrimidin-2-yl]methyl]-4-piperidyl]-3-[7-(difluoromethyl)-6-(1-methylpyrazol-4-yl)-3,4-dihydro-2H-quinolin-1-yl]-N-methyl-6,7-dihydro-4H-pyrazolo[4,3-c]pyridine-5-carboxamide]	> 10000 nM
< 1 nM	≤ 0.1 nM	CC(=O)N1CCc2c(c(N3CCCc4cc(-c5cnn(C)c5)c(C(F)F)cc43)nn2C2CCN(S(=O)(=O)C3CCN(c4ncc(C(=O)NC5C(C)(C)C(Oc6ccc(C#N)c(Cl)c6)C5(C)C)cn4)CC3)CC2)C1 (centres unmarked) [Compound 28, 2-[4-[[4-[5-acetyl-3-[7-(difluoromethyl)-6-(1-methylpyrazol-4-yl)-3,4-dihydro-2H-quinolin-1-yl]-6,7-dihydro-4H-pyrazolo[4,3-c]pyridin-1-yl]-1-piperidyl]sulfonyl]-1-piperidyl]-N-[3-(3-chloro-4-cyano-phenoxy)-2,2,4,4-tetramethyl-cyclobutyl]pyrimidine-5-carboxamide]	> 10000 nM
	≤ 0.1 nM	CC(=O)N1CCc2c(c(-c3cccc4cc(-c5ccc(C(=O)NCC6CCN(c7ncc(C(=O)NC8C(C)(C)C(Oc9ccc(C#N)c(Cl)c9)C8(C)C)cn7)CC6)nc5)ncc34)nn2C2CCOCC2)C1 (centres unmarked) [Compound 110, 2-[4-[[[5-[8-(5-acetyl-1-tetrahydropyran-4-yl-6,7-dihydro-4H-pyrazolo[4,3-c]pyridin-3-yl)-3-isoquinolyl]pyridine-2-carbonyl]amino]methyl]-1-piperidyl]-N-[3-(3-chloro-4-cyano-phenoxy)-2,2,4,4-tetramethyl-cyclobutyl]pyrimidine-5-carboxamide]	> 10000 nM
< 1 nM	≤ 0.1 nM	COc1cc(OC2C(C)(C)C(NC(=O)c3ccc(N4CC(N5CCC6(CCC(n7nc(N8CCCc9cc(-c%10cnn(C)c%10)c(C(F)F)cc98)c8c7CCN(C(C)=O)C8)CC6)C5)C4)cc3)C2(C)C)ccc1C#N (centres unmarked) [Compound 402, 4-[3-[8-[5-acetyl-3-[7-(difluoromethyl)-6-(1-methylpyrazol-4-yl)-3,4-dihydro-2H-quinolin-1-yl]-6,7-dihydro-4Hpyrazolo[4,3-c]pyridin-1-yl]-2-azaspiro[4.5]decan-2-yl]azetidin-1-yl]-N-[3-(4-cyano-3-methoxy-phenoxy)-2,2,4,4-tetramethyl-cyclobutyl]benzamide]	
< 1 nM	≤ 0.1 nM	CC(=O)N1CCc2c(c(N3CCCc4cc(-c5cnn(C)c5)c(C(F)F)cc43)nn2C2CC3(C2)CN(CC2CC4(C2)CN(c2ncc(C(=O)NC5C(C)(C)C(Oc6ccc(C#N)c(Cl)c6)C5(C)C)cn2)C4)C3)C1 (centres unmarked) [Compound 216, 2-[6-[[6-[5-acetyl-3-[7-(difluoromethyl)-6-(1-methylpyrazol-4-yl)-3,4-dihydro-2H-quinolin-1-yl]-6,7-dihydro-4H-pyrazolo[4,3-c]pyridin-1-yl]-2-azaspiro[3.3]heptan-2-yl]methyl]-2-azaspiro[3.3]heptan-2-yl]-N-[3-(3-chloro-4-cyano-phenoxy)-2,2,4,4-tetramethyl-cyclobutyl]pyrimidine-5-carboxamide]	
< 1 nM	0.1 to 1 nM	COc1cc(OC2C(C)(C)C(NC(=O)c3ccc(N4CCC(N5CCC6(CC5)CC(n5nc(N7CCCc8cc(-c9cnn(C)c9)c(C(F)F)cc87)c7c5CCN(C(C)=O)C7)C6)CC4)cc3)C2(C)C)ccc1C#N (centres unmarked) [Compound 374, 4-[4-[2-[5-acetyl-3-[7-(difluoromethyl)-6-(1-methylpyrazol-4-yl)-3,4-dihydro-2H-quinolin-1-yl]-6,7-dihydro-4H-pyrazolo[4,3-c]pyridin-1-yl]-7-azaspiro[3.5]nonan-7-yl]-1-piperidyl]-N-[3-(4-cyano-3-methoxy-phenoxy)-2,2,4,4-tetramethyl-cyclobutyl]benzamide]	

Compound	EC50 [1]	IC50 [2]	IC50 [3]
CC(=O)N1CCc2c(c(N3CCCc4cc(-c5cnn(C)c5)c(C(F)F)cc43)nn2C2CCN(C(=O)OC3CCN(c4ncc(C(=O)NC5C(C)(C)C(Oc6ccc(C#N)c(Cl)c6)C5(C)C)cn4)CC3)CC2)C1 (centres unmarked) [Compound 70, [1-[5-[[3-(3-chloro-4-cyano-phenoxy)-2,2,4,4-tetramethyl-cyclobutyl]carbamoyl]pyrimidin-2-yl]-4-piperidyl]4-[5-acetyl-3-[7-(difluoromethyl)-6-(1-methylpyrazol-4-yl)-3,4-dihydro-2H-quinolin-1-yl]-6,7-dihydro-4H-pyrazolo[4,3-c]pyridin-1-yl]piperidine-1-carboxylate]	< 1 nM	0.1 to 1 nM	> 10000 nM
CNC(=O)N1CCc2c(c(N3CCCc4cc(-c5cnn(C)c5)c(C(F)F)cc43)nn2C2CCN(C(=O)CC3CCN(c4ncc(C(=O)NC5C(C)(C)C(Oc6ccc(C#N)c(Cl)c6)C5(C)C)cn4)CC3)CC2)C1 (centres unmarked) [Compound 101, 1-[1-[2-[1-[5-[[3-(3-chloro-4-cyano-phenoxy)-2,2,4,4-tetramethyl-cyclobutyl]carbamoyl]pyrimidin-2-yl]-4-piperidyl]acetyl]-4-piperidyl]-3-[7-(difluoromethyl)-6-(1-methylpyrazol-4-yl)-3,4-dihydro-2H-quinolin-1-yl]-N-methyl-6,7-dihydro-4H-pyrazolo[4,3-c]pyridine-5-carboxamide]	< 1 nM	≤ 0.1 nM	> 10000 nM
CNC(=O)N1CCc2c(c(N3CCCc4cc(-c5cnn(C)c5)c(C(F)F)cc43)nn2C2CCN(C(=O)COCCCN3CCN(c4ncc(C(=O)NC5C(C)(C)C(Oc6ccc(C#N)c(Cl)c6)C5(C)C)cn4)CC3)CC2)C1 (centres unmarked) [Compound 105, 1-[1-[2-[3-[4-[5-[[3-(3-chloro-4-cyano-phenoxy)-2,2,4,4-tetramethyl-cyclobutyl]carbamoyl]pyrimidin-2-yl]piperazin-1-yl]propoxy]acetyl]-4-piperidyl]-3-[7-(difluoromethyl)-6-(1-methylpyrazol-4-yl)-3,4-dihydro-2H-quinolin-1-yl]-N-methyl-6,7-dihydro-4H-pyrazolo[4,3-c]pyridine-5-carboxamide]	< 1 nM	0.1 to 1 nM	> 10000 nM
CNC(=O)N1CCc2c(c(N3CCCc4cc(-c5cnn(C)c5)c(C(F)F)cc43)nn2C2CCN(C(=O)COC3CCN(c4ncc(C(=O)NC5C(C)(C)C(Oc6ccc(C#N)c(Cl)c6)C5(C)C)cn4)CC3)CC2)C1 (centres unmarked) [Compound 100, 1-[1-[2-[[1-[5-[[3-(3-chloro-4-cyano-phenoxy)-2,2,4,4-tetramethyl-cyclobutyl]carbamoyl]pyrimidin-2-yl]-4-piperidyl]oxy]acetyl]-4-piperidyl]-3-[7-(difluoromethyl)-6-(1-methylpyrazol-4-yl)-3,4-dihydro-2H-quinolin-1-yl]-N-methyl-6,7-dihydro-4H-pyrazolo[4,3-c]pyridine-5-carboxamide]	< 1 nM	≤ 0.1 nM	> 10000 nM

Reference: US20250129070A1, “BIFUNCTIONAL ANDROGEN RECEPTOR COMPOUNDS” (priority 2023, published 2025)
